Experimental data: US10307404B1, “Ocular formulations for drug-delivery to the posterior segment of the eye” (priority 2013, dated 2019)
Read-outs that look alike come from different tables or passages of the source.

Columns and labels:
[1] = PK of topical ocular sodium phosphate-based Gel Drop, concentrations 1 hour after last dose; type: in vivo, Dutch-belted rabbits; details: Dutch-belted, rabbit, retina, read-out: Mean [retina]
Text: The Gel Drop of Compound-I was applied to eyes of Dutch-belted rabbits.

[2] = 1- to 5-day PK, topical ocular Compound-I formulations of Table 8A, 30 μL bilateral dose; type: in vivo, Dutch Belted rabbits
Protocol: On day 1, Groups 1, 2, 4-6, 8, 10, 11, 13, 15, and 17 received one dose (q.d.) for either one (1) or four (4) days.
Peripheral retina and peripheral choroid samples were assayed only for Groups 1-8, 12, 14, and 16 per study protocol.

[3] = Group 2 q.d., 1 hr post day 5 morning dose
[4] = Group 2 q.d., 8 hr post day 5 morning dose
[5] = Group 2 q.d., 24 hr post day 5 morning dose
[6] = Group 3 b.i.d., 1 hr post day 5 morning dose
[7] = Group 3 b.i.d., 24 hr post day 5 morning dose
[8] = Group 4 q.d., 1 hr post day 5 morning dose
[9] = Group 5 q.d., 24 hr post day 1 dose
[10] = Group 6 q.d., 1 hr post day 5 morning dose
[11] = Group 6 q.d., 8 hr post day 5 morning dose
[12] = Group 6 q.d., 24 hr post day 5 morning dose
[13] = Group 7 b.i.d., 1 hr post day 5 morning dose
[14] = Group 11 q.d., 24 hr post day 5 morning dose, n = 1

## Cl.NC(=O)c1c(OCc2c(F)cc(Br)cc2F)nsc1NC(=O)NCCCCN1CCCC1 [Compound-I, 3-[(4-bromo-2,6-difluorophenyl)methoxy]-5-[[[[4-(1-pyrrolidinyl)butyl]amino]carbonyl]amino]-4-isothiazolecarboxamide hydrochloride]
[1]; 2 mg/ml, pH 6, 2 mg/ml pH 6.0 Phos 0.02% BAK 0.005% Gly 2% PS80 1% Tylox 0.2%, 3x/day 5 days
  concentration at 1 h: 92.9 nM
[1]; 2 mg/ml, pH 6, 2 mg/ml pH 6 Phos 0.05% BAK 0.005% Gly 2% Osmo 244, 3x/day 5 days
  concentration at 1 h: 121 nM
[1]; 2 mg/ml, pH 6, 2 mg/ml pH 6 Phos 0.05% BAK 0.005% Gly 2% PS80 1% Osmo 261, 3x/day 5 days
  concentration at 1 h: 126 nM
[1]; 2 mg/ml, pH 6, 2 mg/ml pH 6.0 Phos 0.05% BAK 0.005% Gly 2% PS80 1% Tylox 0.2%, 3x/day 5 days
  concentration at 1 h: 85.7 nM
[1]; 2 mg/ml, pH 6, 2 mg/ml pH 6.0 Phos 0.05% BAK 0.005% Gly 2%, 3x/day 5 days
  concentration at 1 h: 113 nM
[1]; 2 mg/ml, pH 6, 2 mg/ml pH 6.0 Phos 0.1% BAK 0.005% Gly 2%, 3x/day 5 days
  concentration at 1 h: 42.9 nM
[1]; 2 mg/ml, pH 6, 2 mg/ml pH 6.0 Phos 0.2% BAK 0.005% Gly 2%, 3x/day 5 days
  concentration at 1 h: 34.8 nM
[1]; 4 mg/ml, pH 6, 4 mg/ml pH 6.0 Phos 0.2% BAK 0.005% Gly 2%, 3x/day 5 days
  concentration at 1 h: 68.3 nM
[1]; 4 mg/ml, pH 6, 4 mg/ml pH 6.0 Phos 2% BAK 0.005% Gly 2% PS80 1% Tylox 0.2%, 3x/day 5 days
  concentration at 1 h: 97.6 nM
[2]; Dutch Belted, rabbit, cornea, topical, 30 μL bilateral, Group 2 q.d., 24 hr post day 5 morning dose
  concentration at 24 h: 29.7 µM
[2]; Group 1 q.d., 0.5 hr post day 1 dose, LLOQ = 0.0349 μM
  Average Concentration, Peripheral Choroid: <LLOQ
[2]; Group 1 q.d., 1 hr post day 1 dose, LLOQ = 0.0181 μM
  Average Concentration, Central Retina: <LLOQ
[2]; Group 1 q.d., 1 hr post day 1 dose, n = 1
  Average Concentration, Peripheral Choroid: *0.0856 μM
[2]; Group 1 q.d., 24 hr post day 1 dose, LLOQ = 0.0181 μM
  Average Concentration, Central Retina: <LLOQ
[2]; Group 1 q.d., 24 hr post day 1 dose, read-out: Average Concentration, Cornea
  concentration at 24 h: 6.94 µM
[2]; [3]
  Average Concentration, Aqueous Humor: 0.00996 µM
  Average Concentration, Peripheral Choroid: 0.737 µM
[2]; Group 2 q.d., 1 hr post day 5 morning dose, n = 1
  Average Concentration, Central Choroid: *0.207 μM
[2]; Group 2 q.d., 1 hr post day 5 morning dose, read-out: Average Concentration, Cornea
  concentration at 24 h: 112 µM
[2]; [4]
  Average Concentration, Aqueous Humor: 0.0165 µM
  Average Concentration, Peripheral Choroid: 0.687 µM
[2]; Group 2 q.d., 8 hr post day 5 morning dose, n = 1
  Average Concentration, Central Choroid: *0.237 μM
[2]; Group 2 q.d., 8 hr post day 5 morning dose, read-out: Average Concentration, Cornea
  concentration at 24 h: 32.7 µM
[2]; [5]
  Average Concentration, Aqueous Humor: 0.00336 µM
  Average Concentration, Peripheral Choroid: 1.14 µM
  Average Concentration, Peripheral Retina: 0.380 µM
[2]; Group 2 q.d., 24 hr post day 5 morning dose, LLOQ = 0.0181 μM
  Average Concentration, Central Retina: <LLOQ
[2]; Group 2 q.d., 24 hr post day 5 morning dose, n = 1
  Average Concentration, Central Choroid: *0.205 μM
[2]; [6]
  Average Concentration, Aqueous Humor: 0.0142 µM
  Average Concentration, Central Choroid: 0.255 µM
[2]; Group 3 b.i.d., 1 hr post day 5 morning dose, read-out: Average Concentration, Cornea
  concentration at 24 h: 151 µM
[2]; [7]
  Average Concentration, Aqueous Humor: 0.00774 µM
  Average Concentration, Peripheral Retina: 0.0597 µM
[2]; Group 3 b.i.d., 24 hr post day 5 morning dose, read-out: Average Concentration, Cornea
  concentration at 24 h: 82.1 µM
[2]; [8]
  Average Concentration, Aqueous Humor: 0.00996 µM
  Average Concentration, Central Retina: 0.0431 µM
  Average Concentration, Peripheral Choroid: 0.629 µM
  Average Concentration, Peripheral Retina: 0.0883 µM
[2]; Group 4 q.d., 1 hr post day 5 morning dose, read-out: Average Concentration, Cornea
  concentration at 24 h: 78.7 µM
[2]; Group 5 q.d., 0.5 hr post day 1 dose, LLOQ = 0.000903 μM
  Average Concentration, Aqueous Humor: <LLOQ
[2]; Group 5 q.d., 0.5 hr post day 1 dose, LLOQ = 0.0181 μM
  Average Concentration, Central Retina: <LLOQ
[2]; Group 5 q.d., 0.5 hr post day 1 dose, LLOQ = 0.0349 μM
  Average Concentration, Peripheral Choroid: <LLOQ
[2]; Group 5 q.d., 0.5 hr post day 1 dose, read-out: Average Concentration, Cornea
  concentration at 24 h: 21.0 µM
[2]; Group 5 q.d., 1 hr post day 1 dose
  Average Concentration, Peripheral Retina: 0.0253 µM
[2]; Group 5 q.d., 2 hr post day 1 dose
  Average Concentration, Peripheral Retina: 0.0253 µM
[2]; Group 5 q.d., 8 hr post day 1 dose, read-out: Average Concentration, Cornea
  concentration at 24 h: 7.74 µM
[2]; [9]
  Average Concentration, Aqueous Humor: 0.00228 µM
  Average Concentration, Peripheral Choroid: 0.116 µM
[2]; Group 5 q.d., 24 hr post day 1 dose, LLOQ = 0.0181 μM
  Average Concentration, Central Retina: <LLOQ
[2]; Group 5 q.d., 24 hr post day 1 dose, n = 1
  Average Concentration, Peripheral Retina: *0.0103 μM
[2]; Group 5 q.d., 24 hr post day 1 dose, read-out: Average Concentration, Cornea
  concentration at 24 h: 2.43 µM
[2]; [10]
  Average Concentration, Aqueous Humor: 0.00323 µM
  Average Concentration, Central Choroid: 0.319 µM
  Average Concentration, Central Retina: 0.0463 µM
  Average Concentration, Peripheral Choroid: 0.311 µM
  Average Concentration, Peripheral Retina: 0.0634 µM
[2]; Group 6 q.d., 1 hr post day 5 morning dose, read-out: Average Concentration, Cornea
  concentration at 24 h: 21.8 µM
[2]; [11]
  Average Concentration, Aqueous Humor: 0.00742 µM
  Average Concentration, Central Retina: 0.0537 µM
  Average Concentration, Peripheral Choroid: 0.257 µM
[2]; Group 6 q.d., 8 hr post day 5 morning dose, read-out: Average Concentration, Cornea
  concentration at 24 h: 9.10 µM
[2]; [12]
  Average Concentration, Aqueous Humor: 0.00122 µM
  Average Concentration, Peripheral Choroid: 0.343 µM
  Average Concentration, Peripheral Retina: 0.0533 µM
[2]; Group 6 q.d., 24 hr post day 5 morning dose, read-out: Average Concentration, Cornea
  concentration at 24 h: 2.33 µM
[2]; [13]
  Average Concentration, Aqueous Humor: 0.00648 µM
  Average Concentration, Central Choroid: 0.514 µM
  Average Concentration, Central Retina: 0.0469 µM
  Average Concentration, Peripheral Choroid: 0.744 µM
  Average Concentration, Peripheral Retina: 0.0819 µM
[2]; [14]
  Average Concentration, Aqueous Humor: *0.00205 μM
  Average Concentration, Central Choroid: *0.179 μM
  Average Concentration, Central Retina: *0.0185 μM
